Laboratory results reported in ChEMBL document CHEMBL1201862, “PubChem BioAssay data set” (2004).
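Cells were grown in 96-well plates and exposed to each compound for 48 hours at five concentrations; endpoints were interpolated linearly between bracketing concentrations, or set to the highest concentration if not reached. Here, GI50 denotes the concentration required for 50% inhibition of growth.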 Active and inactive are the calls of the source. No stated cut-off is given here; in the data, active = GI50 up to about 1.1 µM and inactive = higher.

What was measured:
Assay in all cases: inhibition of tumour cell growth, NCI panel, 48 h
IGROV-1 = system: IGROV-1
HOP-62 = system: HOP-62
SNB-75 = system: SNB-75
K562 = system: K562
NCI-H522 = system: NCI-H522
U-251 = system: U-251
HCT-116 = system: HCT-116
NCI/ADR-RES = system: NCI/ADR-RES
MDA-MB-231 = system: MDA-MB-231
UACC-62 = system: UACC-62
Hs-578T = system: Hs-578T
SK-OV-3 = system: SK-OV-3
PC-3 = system: PC-3
SF-295 = system: SF-295
OVCAR-4 = system: OVCAR-4
ACHN = system: ACHN
MDA-MB-435 = system: MDA-MB-435
COLO 205 = system: COLO 205
EKVX = system: EKVX
SF-539 = system: SF-539

| SMILES | GI50 (IGROV-1) | GI50 (HOP-62) | GI50 (SNB-75) | GI50 (K562) | GI50 (NCI-H522) | GI50 (U-251) | GI50 (HCT-116) | GI50 (NCI/ADR-RES) | GI50 (MDA-MB-231) | GI50 (UACC-62) | GI50 (Hs-578T) | GI50 (SK-OV-3) | GI50 (PC-3) | GI50 (SF-295) | GI50 (OVCAR-4) | GI50 (ACHN) | GI50 (MDA-MB-435) | GI50 (COLO 205) | GI50 (EKVX) | GI50 (SF-539) |
| --- | --- | --- | --- | --- | --- | --- | --- | --- | --- | --- | --- | --- | --- | --- | --- | --- | --- | --- | --- | --- |
| Cc1cccc2c(N)c3cccc(C(=O)NCC[N+]4(Cc5ccc([N+](=O)[O-])cc5)CCOCC4)c3nc12 | 20.6 µM (inactive) | 25.7 µM (inactive) | 16 µM (inactive) | 16 µM (inactive) | 13.5 µM (inactive) | 38.8 µM (inactive) | 16.1 µM (inactive) | > 95.1 µM (inactive) | > 60.1 µM (inactive) | > 51.4 µM (inactive) | 7.26 µM (inactive) | > 100 µM (inactive) | 40.4 µM (inactive) | 27.5 µM (inactive) | 61.9 µM (inactive) | 29 µM (inactive) | 80.5 µM (inactive) | 45.9 µM (inactive) | 36.2 µM (inactive) | 24.8 µM (inactive) |
| Cc1ccc(N(C=O)c2c([N+](=O)[O-])cc([N+](=O)[O-])c3c2=[N+]([O-])CN=3)cc1 | 38.8 µM (inactive) | 60 µM (inactive) | 33.7 µM (inactive) | 27.3 µM (inactive) | 19.2 µM (inactive) | 28.4 µM (inactive) | 24.8 µM (inactive) | 30.7 µM (inactive) | 18.5 µM (inactive) | 11.9 µM (inactive) | 29 µM (inactive) | > 100 µM (inactive) | 20.4 µM (inactive) | 65.5 µM (inactive) | 30.9 µM (inactive) | 24.8 µM (inactive) | 30.8 µM (inactive) | 28.5 µM (inactive) | > 100 µM (inactive) | 32 µM (inactive) |
| COC(=O)C(Cc1ccccc1)NP(=O)(O)OCC1OC(n2cc(Br)c(=O)[nH]c2=O)CC1O (stereo not given) | > 100 µM (inactive) | > 100 µM (inactive) | > 100 µM (inactive) | > 100 µM (inactive) | > 100 µM (inactive) | > 100 µM (inactive) | > 100 µM (inactive) | > 100 µM (inactive) | > 100 µM (inactive) | > 100 µM (inactive) | > 100 µM (inactive) | > 100 µM (inactive) | > 100 µM (inactive) | > 100 µM (inactive) | > 100 µM (inactive) | > 100 µM (inactive) | > 100 µM (inactive) | > 100 µM (inactive) | > 100 µM (inactive) | > 100 µM (inactive) |
| Cc1ccc(/N=N/C(=N/NC(=O)c2ccccc2)c2ccc(N(CCC#N)CCC#N)cc2C)cc1 | 29.3 µM (inactive) | 41.6 µM (inactive) | 32.7 µM (inactive) | 8.05 µM (inactive) | 15.5 µM (inactive) | 52.6 µM (inactive) | 29.3 µM (inactive) | > 100 µM (inactive) | 31.4 µM (inactive) | 31 µM (inactive) | 13 µM (inactive) | 60.3 µM (inactive) | 26.7 µM (inactive) | 21.7 µM (inactive) | 99.8 µM (inactive) | > 100 µM (inactive) | 4.97 µM (inactive) | 35.2 µM (inactive) | 63.4 µM (inactive) | 19.3 µM (inactive) |
| COC(=O)[C@]1(C)CCC[C@]2(C)[C@H]3CC[C@]4(C(C)C)OO[C@@H](O4)[C@]34O[C@@H]4C[C@H]21 | 0.157 µM (active) | 2.12 µM (inactive) | 3.87 µM (inactive) | 1.99 µM (inactive) | 1.43 µM (inactive) | 3.65 µM (inactive) | 1.63 µM (inactive) | 3.57 µM (inactive) | 4.11 µM (inactive) | 5.3 µM (inactive) | 2.63 µM (inactive) | 2.32 µM (inactive) | 1.48 µM (inactive) | 3.63 µM (inactive) | 1.85 µM (inactive) | 0.56 µM (active) | 1.79 µM (inactive) | 2.14 µM (inactive) | 1.87 µM (inactive) | 10.6 µM (inactive) |
| O=C(CSc1nc2ccc(Cl)cc2c(=O)n1-c1ccccc1)N/N=C1\C(=O)Nc2ccc(F)cc21 | 2.17 µM (inactive) | 1.75 µM (inactive) | 2.24 µM (inactive) | 3.72 µM (inactive) | 1.81 µM (inactive) | 1.74 µM (inactive) | 2.02 µM (inactive) | 2.65 µM (inactive) | 2.76 µM (inactive) | 2.39 µM (inactive) | 4.25 µM (inactive) | 8.34 µM (inactive) | 2.39 µM (inactive) | 4.2 µM (inactive) | 2.16 µM (inactive) | 1.98 µM (inactive) | 2.43 µM (inactive) | 2.21 µM (inactive) | 3 µM (inactive) | 2.86 µM (inactive) |
| O=c1[nH]cnc2c1ncn2C1SC(CO)C(O)C1O (stereo not given) | > 100 µM (inactive) | > 100 µM (inactive) | > 100 µM (inactive) | > 100 µM (inactive) | > 100 µM (inactive) | > 100 µM (inactive) | > 100 µM (inactive) | > 100 µM (inactive) | > 100 µM (inactive) | > 100 µM (inactive) | > 100 µM (inactive) | > 100 µM (inactive) | > 100 µM (inactive) | > 100 µM (inactive) | > 100 µM (inactive) | > 100 µM (inactive) | > 100 µM (inactive) | > 100 µM (inactive) | > 100 µM (inactive) | > 100 µM (inactive) |
| Cc1cc(C)n(-c2nc3ccccc3c(=O)[nH]2)n1 | 1.5 µM (inactive) | 2.29 µM (inactive) | 14.1 µM (inactive) | 1.64 µM (inactive) | 2.81 µM (inactive) | 3.24 µM (inactive) | 1.88 µM (inactive) | 1.53 µM (inactive) | 11 µM (inactive) | 2.78 µM (inactive) | 24.8 µM (inactive) | 8.65 µM (inactive) | 5.96 µM (inactive) | 2.1 µM (inactive) | 56.6 µM (inactive) | 2.49 µM (inactive) | 1.86 µM (inactive) | 2.43 µM (inactive) | 5.42 µM (inactive) | 4.4 µM (inactive) |
| CC(C)C1CC(CO)(CNc2nc(N)nc(Cl)c2/C=N\O)C1 (stereo not given) | 15.7 µM (inactive) | 21.9 µM (inactive) | 12.5 µM (inactive) | 0.0843 µM (active) | 4.53 µM (inactive) | 14.5 µM (inactive) | 12.6 µM (inactive) | 3.42 µM (inactive) | 12.6 µM (inactive) | 11.6 µM (inactive) | 15.9 µM (inactive) | 10.3 µM (inactive) | 9.27 µM (inactive) | 1.01 µM (active) | 2.35 µM (inactive) | 8.51 µM (inactive) | 12.6 µM (inactive) | 2.37 µM (inactive) | 0.264 µM (active) | 16.8 µM (inactive) |
| N#CC(=N)c1ncn(-c2ccc(N)cc2)c1N | > 100 µM (inactive) | > 100 µM (inactive) | > 100 µM (inactive) | > 100 µM (inactive) | > 100 µM (inactive) | > 100 µM (inactive) | > 100 µM (inactive) | > 100 µM (inactive) | > 100 µM (inactive) | > 100 µM (inactive) | > 100 µM (inactive) | > 100 µM (inactive) | > 100 µM (inactive) | > 100 µM (inactive) | > 100 µM (inactive) | > 100 µM (inactive) | > 100 µM (inactive) | > 100 µM (inactive) | > 100 µM (inactive) | > 100 µM (inactive) |
| COC1C=COC2(C)Oc3c(C)c(O)c4c(c3C2=O)/C(=N/C2CCC(O)OC2C)C=C(NC(=O)/C(C)=C\C(=O)C2CC2C(O)C(C)C(O)C(C)C(OC(C)=O)C1C)C4=O (stereo not given) | 2.4 µM (inactive) | 3.04 µM (inactive) | 3.09 µM (inactive) | 2.22 µM (inactive) | 0.946 µM (active) | 2.77 µM (inactive) | 1.79 µM (inactive) | 14.2 µM (inactive) | 2.07 µM (inactive) | 2.01 µM (inactive) | 2.41 µM (inactive) | 7.96 µM (inactive) | 2.3 µM (inactive) | 3.72 µM (inactive) | 3.09 µM (inactive) | 3.13 µM (inactive) | 1.79 µM (inactive) | 1.33 µM (inactive) | 3.13 µM (inactive) | 2.33 µM (inactive) |
| Nc1cc2c3c(c1)Oc1cc(N)cc4c1C3c1c(cc(N)cc1O4)O2 | 10.4 µM (inactive) | 25.7 µM (inactive) | 19.3 µM (inactive) | 30.8 µM (inactive) | 21.2 µM (inactive) | 43.1 µM (inactive) | 21.7 µM (inactive) | 6.32 µM (inactive) | 16.2 µM (inactive) | 26.4 µM (inactive) | 24.2 µM (inactive) | 46.5 µM (inactive) | 26.1 µM (inactive) | 26.2 µM (inactive) | 56.5 µM (inactive) | 22 µM (inactive) | 29 µM (inactive) | 16.1 µM (inactive) | 11.6 µM (inactive) | 15.7 µM (inactive) |
| O=[As]O | 28 µM (inactive) | > 100 µM (inactive) | > 51.1 µM (inactive) | 37.7 µM (inactive) | 22.8 µM (inactive) | 23.2 µM (inactive) | > 93.3 µM (inactive) | > 100 µM (inactive) | > 100 µM (inactive) | > 39.1 µM (inactive) | > 100 µM (inactive) | > 100 µM (inactive) | > 100 µM (inactive) | > 81.1 µM (inactive) | > 91.6 µM (inactive) | > 100 µM (inactive) | > 100 µM (inactive) | > 90.6 µM (inactive) | > 60 µM (inactive) | 22.8 µM (inactive) |
| CCc1ccc(/C=C\c2cc(OC)c(OC)c(OC)c2)cc1 | 0.0493 µM (active) | 0.0531 µM (active) | 0.0234 µM (active) | 0.00845 µM (active) | 0.0118 µM (active) | 0.0102 µM (active) | 0.0107 µM (active) | 0.00286 µM (active) | 0.144 µM (active) | 0.0132 µM (active) | 0.00255 µM (active) | 0.013 µM (active) | 0.00325 µM (active) | 0.00631 µM (active) | 0.617 µM (active) | 0.0285 µM (active) | 0.00204 µM (active) | 0.0122 µM (active) | 0.887 µM (active) | 0.0101 µM (active) |
